Data taken from patent US20250205256A1 (GH RESEARCH IRELAND LIMITED, priority 2022, published 2025).
Values joined by “and” are separate entries in the source; they are usually repeats but may differ in a detail not shown here. Equal values may be shown once.

Key:
[1] = Pharmacokinetics after single inhaled dose of 5-MeO-DMT (LC-MS/MS); assay type: in vivo, human
Procedure: Blood samples were obtained at 1; 2; 4; 7; 10; 15; 20; 30; 45 min and 1; 1.5; 2; 3; 4 hours after administration.
PK parameters were generated by algebraic analysis of the concentration versus time plots for each individual. The analysis was carried out using the software Phoenix WinNonlin 6.3.

[2] = system: patient with postpartum depression (PPD); test: Clinical trial of inhaled 5-MeO-DMT in postpartum depression: Barkin Index of Maternal Functioning (BIMF); assay type: in vivo, human; settings: PPD n=1
Text: Maternal functioning can, for instance, be assessed using the Barkin Index of Maternal Functioning (BIMF). This index was designed to measure functioning in the year after childbirth. The BIMF is a 20-item self-report measure of functioning. Each item is assigned a score between 0 and 6 so that the maximum total score is 120. The higher the score, the better maternal functioning is rated.
The BIMF identifies the key functional domains of a mother during the postnatal period as: self-care, infant care, mother-child interaction, psychological wellbeing of the mother, social support, management, and adjustment.
(§1) The patient completed all planned visit days.

[3] = system: patient with postpartum depression (PPD); test: Clinical trial of inhaled 5-MeO-DMT in postpartum depression: safety and tolerability; assay type: in vivo, human; settings: PPD n=1
Text: as §1

[4] = system: Salmonella typhimurium strains TA98, TA100, TA1535 and TA1537; test: Bacterial mutation test, Salmonella typhimurium; assay type: cell-based; settings: up to 5000 μg/plate, absence and presence of rat liver S-9
Procedure: These conditions included treatments at concentrations up to 5000 μg/plate (the maximum recommended concentration according to current regulatory guidelines), in the absence and in the presence of a rat liver metabolic activation system (S-9).

[5] = system: patient with postpartum depression (PPD); test: Clinical trial of inhaled 5-MeO-DMT (IDR, 6 mg then 12 mg) in postpartum depression: MADRS; assay type: in vivo, human; settings: for Total MADRS score: baseline 29
Text: as §1

With `COc1ccc2[nH]cc(CCN(C)C)c2c1` [5-MeO-DMT] the detectability in plasma ([1]; 3 hours after inhalation, whole dose range) was “no longer detectable”, the “pharmacokinetic measurements under uptitration dosing schemes” value ([1]; compared with single doses) was “Substantially similar results were obtained” and the “accumulation upon repeated administration” value ([1]; repeat within 1 to 4 hours) was “No accumulation is observed”. The “BIMF total score improvement, percent” value ([2]; Day 7, from 92 to 105) was 14%, the “BIMF item 16 (I worry about how other people judge me (as a mother)) score” value ([2]; Day 7, Day 0 score 3) was 5 and the “BIMF item 10 (I trust my own feelings (instincts) when taking care of my baby) score” value ([2]; Day 7, Day 0 score 5) was 6. The “BIMF functional domain Adjustment score” value ([2]; Day 7, Day 0 score 5, maximum 12) was 6, the “BIMF functional domain Self Care score” value ([2]; Day 7, Day 0 score 9, maximum 18) was 13 and the “BIMF functional domain Infant Care score” value ([2]; Day 7, Day 0 score 12, maximum 12) was 12. For the same molecule, the “BIMF functional domain Mother-Child Interaction score” value ([2]; Day 7, Day 0 score 15, maximum 18) was 17, the “BIMF functional domain Social Support score” value ([2]; Day 7, Day 0 score 17, maximum 18) was 18 and the “BIMF functional domain Management score” value ([2]; Day 7, Day 0 score 28, maximum 36) was 33. The “BIMF functional domain Psychological Well-being score” value ([2]; Day 7, Day 0 score 44, maximum 60) was 53, the “BIMF TOTAL Δ (Day 7)” value ([2]; Day 7 vs Day 0) was 13 and the “BIMF functional domain Adjustment % Improvement” value ([2]; Day 7 vs Day 0) was 20.00%. The “BIMF functional domain Adjustment Δ (Day 7)” value ([2]; Day 7 vs Day 0) was 1, the “BIMF functional domain Infant Care % Improvement” value ([2]; Day 7 vs Day 0) was 0.00% and the “BIMF functional domain Infant Care Δ (Day 7)” value ([2]; Day 7 vs Day 0) was 0. For the same molecule, the “BIMF functional domain Management % Improvement” value ([2]; Day 7 vs Day 0) was 18% and 17.86%, the “BIMF functional domain Management Δ (Day 7)” value ([2]; Day 7 vs Day 0) was 5 and the “BIMF functional domain Mother-Child Interaction % Improvement” value ([2]; Day 7 vs Day 0) was 13.33%. For the same molecule, the “BIMF functional domain Mother-Child Interaction Δ (Day 7)” value ([2]; Day 7 vs Day 0) was 2, the “BIMF functional domain Psychological Well-being % Improvement” value ([2]; Day 7 vs Day 0) was 20.45% and the “BIMF functional domain Psychological Well-being Δ (Day 7)” value ([2]; Day 7 vs Day 0) was 9. For the same molecule, the “BIMF functional domain Self Care % Improvement” value ([2]; Day 7 vs Day 0) was 44% and 44.44%, the “BIMF functional domain Self Care Δ (Day 7)” value ([2]; Day 7 vs Day 0) was 4 and the “BIMF functional domain Social Support % Improvement” value ([2]; Day 7 vs Day 0) was 5.88%. The “BIMF functional domain Social Support Δ (Day 7)” value ([2]; Day 7 vs Day 0) was 1, the “BIMF item 1 (I am a good mother) Δ (Day 7)” value ([2]; Day 7 vs Day 0) was 0 and the “BIMF item 2 (I feel rested) Δ (Day 7)” value ([2]; Day 7 vs Day 0) was 2. For the same molecule, the “BIMF item 3 (comfortable with the way I've chosen to feed my baby) Δ (Day 7)” value ([2]; Day 7 vs Day 0) was 0, the “BIMF item 4 (My baby and I understand each other) Δ (Day 7)” value ([2]; Day 7 vs Day 0) was 0 and the “BIMF item 5 (able to relax and enjoy time with my baby) Δ (Day 7)” value ([2]; Day 7 vs Day 0) was 1. For the same molecule, the “BIMF item 6 (people I can trust to care for my baby when I need a break) Δ (Day 7)” value ([2]; Day 7 vs Day 0) was 0, the “BIMF item 8 (getting enough adult interaction) Δ (Day 7)” value ([2]; Day 7 vs Day 0) was 0 and the “BIMF item 9 (getting enough encouragement from other people) Δ (Day 7)” value ([2]; Day 7 vs Day 0) was 1. The “BIMF item 10 (I trust my own feelings (instincts) when taking care of my baby) Δ (Day 7)” value ([2]; Day 7 vs Day 0) was 1, the “BIMF item 11 (a little time each week to do something for myself) Δ (Day 7)” value ([2]; Day 7 vs Day 0) was 1 and the “BIMF item 12 (taking good care of my baby's physical needs) Δ (Day 7)” value ([2]; Day 7 vs Day 0) was 0. The “BIMF item 13 (taking good care of my physical needs) Δ (Day 7)” value ([2]; Day 7 vs Day 0) was 1, the “BIMF item 14 (good decisions about my baby's health and well being) Δ (Day 7)” value ([2]; Day 7 vs Day 0) was 0 and the “BIMF item 15 (My baby and I are getting into a routine) Δ (Day 7)” value ([2]; Day 7 vs Day 0) was 1. The “BIMF item 16 (I worry about how other people judge me (as a mother)) Δ (Day 7)” value ([2]; Day 7 vs Day 0) was 2, the “BIMF item 17 (able to take care of my baby and my other responsibilities) Δ (Day 7)” value ([2]; Day 7 vs Day 0) was 0 and the “BIMF item 18 (Anxiety or worry often interferes with my mothering ability) Δ (Day 7)” value ([2]; Day 7 vs Day 0) was 3. For the same molecule, the “BIMF item 19 (getting better at taking care of my baby) Δ (Day 7)” value ([2]; Day 7 vs Day 0) was 1, the “BIMF item 20 (satisfied with the job I am doing as a new mother) Δ (Day 7)” value ([2]; Day 7 vs Day 0) was −1 and the “reported adverse events (cramping left abdominal pain and headache, Day 0)” value [3] was “mild, short-lasting and resolved spontaneously”. The “tolerability of inhalation procedure” value [3] was “well tolerated with no inhalation-related adverse events”, the “ECG, safety laboratory analyses, CADSS” value ([3]; ECG 3 hours, laboratory 7 days, CADSS 3 hours, 1 day and 7 days) was “unremarkable” and the “changes in vital parameters” value ([3]; shortly after administration) was “temporary, clinically non-relevant increase in heart rate and blood pressure”. For the same molecule, the induction of mutation [4] was “did not induce mutation”, the “MADRS response (at least 50% improvement) and MADRS remission (total score ≤10) criteria” value ([5]; PPD n=1) was “fulfilled standard criteria” and the “time to clinical response after administration” value ([5]; PPD n=1) was ≤ 2 h. For the same molecule, the “time to clinical remission after administration” value ([5]; PPD n=1, IDR) was ≤ 2 h, the “Total MADRS improvement” value ([5]; PPD n=1, 2 hr vs baseline) was 24 and the “Total MADRS score” value ([5]; PPD n=1, 2 hr) was 5. The “MADRS Lassitude score” value ([5]; PPD n=1, Day 1, baseline 3) was 0, the “Total MADRS score” value ([5]; PPD n=1, Day 1) was 0 and the “Total MADRS improvement” value ([5]; PPD n=1, Day 1 vs baseline) was 29. For the same molecule, the “Total MADRS score” value ([5]; PPD n=1, Day 7) was 1, the “Total MADRS improvement” value ([5]; PPD n=1, Day 7 vs baseline) was 28 and the “durability of clinical response” value ([5]; PPD n=1, single treatment day) was “sustained over the 7-day follow-up period”.
